From US20260027125A1, “AN ANTIBACTERIAL PARENTERAL FORMULATION AND METHODS THEREOF” (BUGWORKS RESEARCH INDIA PVT. LTD., priority 2022, published 2026)
Structures can show the parent of a compound that is named as a salt.

Experiments:
[1] = tested on: Enterococcus faecalis; test: microbe, parasite or virus in culture; format: cell-based
[2] = tested on: Campylobacter sp.; test: microbe, parasite or virus in culture; format: cell-based
[3] = tested on: Proteus mirabilis, vulgaris; test: microbe, parasite or virus in culture; format: cell-based
[4] = tested on: Streptococcus pyogenes; test: microbe, parasite or virus in culture; format: cell-based
[5] = tested on: Bacillus anthracis; test: microbe, parasite or virus in culture; format: cell-based
[6] = tested on: Ureaplasma species (atypical); test: microbe, parasite or virus in culture; format: cell-based
[7] = tested on: Coagulase-negatives Staphylococcus; test: microbe, parasite or virus in culture; format: cell-based
[8] = tested on: Moraxella catarrhalis; test: microbe, parasite or virus in culture; format: cell-based
[9] = tested on: Enterobacter aerogenes; test: microbe, parasite or virus in culture; format: cell-based
[10] = tested on: A. baumannii ATCC 17978; test: Neutropenic murine model of thigh infection; format: in vivo, Acinetobacter baumannii; settings: neutropenic mice
[11] = tested on: Burkholderia mallei; test: microbe, parasite or virus in culture; format: cell-based
[12] = tested on: Burkholderia pseudomallei; test: microbe, parasite or virus in culture; format: cell-based
[13] = tested on: Acinetobacter baumannii; test: microbe, parasite or virus in culture; format: cell-based
[14] = tested on: Morganella morgannii; test: microbe, parasite or virus in culture; format: cell-based
[15] = tested on: Citrobacter freundii; test: microbe, parasite or virus in culture; format: cell-based
[16] = pH solution stability study; format: physicochemical
Description: The weighed quantity of compound of Formula (I) formate salt was added to each buffers system and dissolved. Volume make up was performed with WFI. The 5 mL of sample was filled in 5 mL USP Type I Vials. Vials were stopped and sealed. These vials were kept at 25° C. for stability study. The blank buffers/placebo samples were also placed along with active samples.

[17] = tested on: Streptococcus pneumoniae; test: microbe, parasite or virus in culture; format: cell-based
[18] = tested on: Escherichia coli; test: microbe, parasite or virus in culture; format: cell-based

SMILES: Cn1c(=O)ccc2ccc(F)c(CCNC[C@H]3CN(c4cnc5c(n4)NC(=O)CO5)C(=O)O3)c21 [compound of Formula (I) formate salt, (S)-6-(5-(((2-(7-fluoro-1-methyl-2-oxo-1,2-dihydroquinolin-8-yl)ethyl)amino)methyl)-2-oxooxazolidin-3-yl)-2H-pyrazino[2,3-b][1,4]oxazin-3(4H)-one formate]
- MIC Range, high end [1]: 0.25 µg/mL
- MIC Range, low end [1]: <0.015 µg/mL
- MIC50 ([1]; Enterococcus faecalis): 0.03 µg/mL
- MIC90 ([1]; Enterococcus faecalis): 0.06 µg/mL
- MIC Range, high end [2]: 0.03 µg/mL
- MIC Range, low end [2]: ≤0.015 µg/mL
- MIC50 ([2]; Campylobacter): ≤ 0.015 µg/mL
- MIC90 ([2]; Campylobacter): ≤ 0.015 µg/mL
- MIC Range, high end [3]: 2 µg/mL
- MIC Range, low end [3]: 0.03 µg/mL
- MIC50 ([3]; Proteus mirabilis): 0.12 µg/mL
- MIC90 ([3]; Proteus mirabilis): 0.5 µg/mL
- MIC Range, high end [4]: 0.06 µg/mL
- MIC Range, low end [4]: 0.03 µg/mL
- MIC50 ([4]; Streptococcus pyogenes): 0.03 µg/mL
- MIC90 ([4]; Streptococcus pyogenes): 0.03 µg/mL
- MIC50 [5]: ≤ 0.015 µg/mL
- MIC90 [5]: ≤ 0.015 µg/mL
- MIC Range, high end ([5]; N 42 strains): ≤0.015 µg/mL
- MIC Range, low end ([5]; N 42 strains): ≤0.015 µg/mL
- MIC Range, high end [6]: 0.03 µg/mL
- MIC Range, low end [6]: ≤0.015 µg/mL
- MIC50 ([6]; Ureaplasma): ≤ 0.015 µg/mL
- MIC90 ([6]; Ureaplasma): ≤ 0.015 µg/mL
- MIC Range, high end [7]: 0.03 µg/mL
- MIC Range, low end [7]: <0.015 µg/mL
- MIC50 ([7]; Staphylococcus): < 0.015 µg/mL
- MIC90 ([7]; Staphylococcus): < 0.015 µg/mL
- MIC Range, high end [8]: ≤0.015 µg/mL
- MIC Range, low end [8]: ≤0.015 µg/mL
- MIC50 ([8]; Moraxella catarrhalis): ≤ 0.015 µg/mL
- MIC90 ([8]; Moraxella catarrhalis): ≤ 0.015 µg/mL
- MIC Range, high end [9]: 0.25 µg/mL
- MIC Range, low end [9]: 0.25 µg/mL
- MIC50 ([9]; Klebsiella aerogenes): 0.25 µg/mL
- MIC90 ([9]; Klebsiella aerogenes): 0.25 µg/mL
- effect on bacterial burden in thigh ([10]; SC 10 mg/kg q8h, 26 hours): effective at reducing
- effect on bacterial burden in thigh ([10]; SC 30 mg/kg q8h, 26 hours): effective at reducing
- effect on bacterial burden in thigh ([10]; SC 60 mg/kg q8h, 26 hours): either a bacteriostatic or killing effect
- effect on bacterial burden in thigh ([10]; SC 90 mg/kg q8h, 26 hours): logarithmic killing
- effect on bacterial burden in thigh ([10]; SC 120 mg/kg q8h, 26 hours): logarithmic killing
- efficacy compared with polymyxin B (SC 25 mg/kg q8h) ([10]; doses ≥90 mg/kg q8h SC): more effective
- efficacy compared with subcutaneous meropenem (200 mg/kg q8h) ([10]; doses ≥90 mg/kg q8h SC): more effective
- effect on bacterial burden in thigh ([10]; ≥60 mg/kg q8h SC, across three replicate studies): logarithmic killing
- MIC50 [11]: 0.25 µg/mL
- MIC90 [11]: 1 µg/mL
- MIC Range, high end ([11]; N 36 strains): 4 µg/mL
- MIC Range, low end ([11]; N 36 strains): ≤0.015 µg/mL
- MIC50 [12]: 0.25 µg/mL
- MIC90 [12]: 0.5 µg/mL
- MIC Range, high end ([12]; N 40 strains): 4 µg/mL
- MIC Range, low end ([12]; N 40 strains): ≤0.015 µg/mL
- MIC Range, high end [13]: 4 µg/mL
- MIC Range, low end [13]: 0.03 µg/mL
- MIC50 ([13]; Acinetobacter baumannii): 0.25 µg/mL
- MIC90 ([13]; Acinetobacter baumannii): 0.5 µg/mL
- MIC Range, high end [14]: 8 µg/mL
- MIC Range, low end [14]: ≤0.015 µg/mL
- MIC50 ([14]; Morganella): 0.12 µg/mL
- MIC90 ([14]; Morganella): 0.5 µg/mL
- MIC Range, high end [15]: 8 µg/mL
- MIC Range, low end [15]: 0.03 µg/mL
- MIC50 ([15]; Citrobacter freundii): 0.25 µg/mL
- MIC90 ([15]; Citrobacter freundii): 1 µg/mL
- stability ([16]; acid pH (<5)): very stable
- stability ([16]; liquid state (Solution/Suspension)): highly unstable
- stability ([16]; neutral to alkaline pH range (pH 5.0 to 10.0)): unstable
- solution stability upto ([16]; pH 3.0-pH 5.0): ≤ 24 h
- MIC Range, high end [17]: 0.06 µg/mL
- MIC Range, low end [17]: 0.03 µg/mL
- MIC50 ([17]; Streptococcus pneumoniae): 0.03 µg/mL
- MIC90 ([17]; Streptococcus pneumoniae): 0.03 µg/mL
- MIC Range, high end [18]: 4 µg/mL
- MIC Range, low end [18]: ≤0.015 µg/mL
- MIC50 ([18]; Escherichia coli): 0.12 µg/mL
- MIC90 ([18]; Escherichia coli): 0.5 µg/mL
